Results reported in patent US8703800B2, “Nitrate and diazeniumdiolate derivatives of pioglitazone” (Cardiolynx AG, priority 2010, dated 2014).
Where two headings read alike, the source gives them in different places.

What was measured:
[1] = system: rat aortic ring segments preconstricted with phenylephrine; experiment: Isometric tension studies: vasodilation of preconstricted rat aortic ring segments; assay type: cell-based; conditions: for EC50: read-out: pD2-value (vasodilatory potency) (converted)
Protocol: Vasodilation of rat aortic ring segments preconstricted with phenylephrine, Example 2, Table 1. X-axis: relaxation in %; y-axis: log concentration (log M).
For in vitro characterization of the new pioglitazone nitrate (1) of Example 1, vasodilatory potency was determined by isometric tension studies. According to a published procedure rat aortic ring segments were preconstricted by the alpha-receptor-agonist phenylephrine [Daiber, A. et al., Mol Pharmacol 66 (2004), 1372-1382; Wendt, M. et al., Free Radic Biol Med 39 (2005), 381-391; Munzel, T. et al., J Clin Invest 95 (1995), 187-194]. After reaching a stable preconstriction of vascular tone, the vessels were dose-dependently vasodilated until the final tone at the highest added concentration of the vasodilator was reached. The vasodilators were added at half-logarithmic concentrations starting at 10^−8 M (=10 nanomolar). Vasodilatory potency was compared creating a concentration-relaxation curve. The data are based on experiments with aorta from at least 6 rats on 3 different days.

[2] = system: isolated rat cardiac mitochondria; experiment: ROS/RONS formation in isolated mitochondria (L-012 chemiluminescence); assay type: biochemical
From the text: Reactive oxygen and nitrogen species formation in response to in vitro challenge of isolated rat cardiac mitochondria based on reaction of the chemiluminescence dye L-012 (a luminal analogue), Example 3, Table 2. X-axis: compounds tested with concentration [μM]; y-axis: photons n per 1 sec of emission of chemiluminescence light (ECL).
Vascular oxidative stress is a well-known side effect of nitrate tolerance (an adverse condition that develops under chronic nitrate therapy). Therefore, the induction of reactive oxygen and nitrogen species formation in response to in vitro challenges with the test compounds was assessed in isolated mitochondria according to a published procedure [Daiber, A. et al., Mol Pharmacol 66 (2004), 1372-1382; Daiber, A. et al., Biochem Biophys Res Commun 338 (2005), 1865-1874; Daiber, A. et al., Mol Pharmacol 68 (2005), 579-588]. The assay is based on the reaction of the chemiluminescence dye L-012 (a luminol analogue) with reactive oxygen and nitrogen species (RONS, e.g. superoxide anion radicals, peroxynitrite anions or nitrogen dioxide radicals) and subsequent emission of chemiluminescence light (ECL). The signal is counted in photons/time (=counts/30s). The data are based on experiments with cardiac mitochondria from at least 6 rats on 3 different days.

[3] = rat aortic rings preconstricted with phenylephrine
[4] = rat aortic rings preconstricted with phenylephrine, concentration-relaxation curve

Structure (SMILES)	Isometric tension, relaxation (Mean ± SEM) ([1]; Log [M] −3.5) [%]	Isometric tension, relaxation (Mean ± SEM) ([1]; Log [M] −4) [%]	Isometric tension, relaxation (Mean ± SEM) ([1]; Log [M] −4.5) [%]	Isometric tension, relaxation (Mean ± SEM) ([1]; Log [M] −5) [%]	Isometric tension, relaxation (Mean ± SEM) ([1]; Log [M] −5.5) [%]	Isometric tension, relaxation (Mean ± SEM) ([1]; Log [M] −6) [%]	Isometric tension, relaxation (Mean ± SEM) ([1]; Log [M] −6.5) [%]	Isometric tension, relaxation (Mean ± SEM) ([1]; Log [M] −7) [%]	Isometric tension, relaxation (Mean ± SEM) ([1]; Log [M] −7.5) [%]	Isometric tension, relaxation (Mean ± SEM) ([1]; Log [M] −8) [%]	Vasodilatory potency, result in words [1, 3]	EC50 [1, 4] [µM]	ROS formation, Mean ([2]; rat, 10 μM) [counts/1 s]	ROS formation, Mean ([2]; rat, 100 μM) [counts/1 s]	ROS formation, Mean ([2]; rat, 1000 μM) [counts/1 s]	ROS formation, Mean ([2]; Conc. 10 μM, basal 627.7) [counts/1 s]	ROS formation, Mean ([2]; Conc. 100 μM, basal 627.7) [counts/1 s]	ROS formation, Mean ([2]; Conc. 1000 μM, basal 627.7) [counts/1 s]	further results
CCc1ccc(CCOc2ccc(CC3SC(=O)NC3=O)cc2)nc1 (racemic) [Pioglitazone]	55.47 ± 5.98	22.40 ± 3.34	11.19 ± 3.82	8.30 ± 3.49	5.63 ± 3.15	5.40 ± 2.88	4.14 ± 2.57	3.42 ± 1.68	2.92 ± 1.49	0	weak relaxing effects	~316	563	874.5	801.7	–	–	–	–
O=[N+]([O-])OCC(CO[N+](=O)[O-])O[N+](=O)[O-] [Glycerol trinitrate]	–	–	–	–	–	–	–	–	–	–	–	–	–	–	–	597.7	898.5	2762	–
O=[N+]([O-])O[C@@H]1CO[C@H]2[C@@H]1OC[C@@H]2O [ISMN, Isosorbide-5-mononitrate]	64.17 ± 4.11	43.46 ± 3.28	16.76 ± 2.29	9.29 ± 2.23	5.47 ± 1.95	3.73 ± 1.39	3.86 ± 1.04	0	–	–	–	–	–	–	–	–	–	–	Isometric tension, relaxation (Mean ± SEM) ([1]; Log [M] −2): 98.77 ± 0.75%; Isometric tension, relaxation (Mean ± SEM) ([1]; Log [M] −2.5): 94.91 ± 1.28%; Isometric tension, relaxation (Mean ± SEM) ([1]; Log [M] −3): 82.81 ± 3.45%
O=C(NCCO[N+](=O)[O-])OCCl [Linker 2, chloromethyl N-2-nitrooxyethylcarbamate]	96.18 ± 2.20	91.00 ± 5.36	86.66 ± 6.04	80.97 ± 6.47	68.37 ± 6.89	51.19 ± 6.35	30.73 ± 5.12	16.85 ± 3.29	8.25 ± 2.09	0	–	–	–	–	–	622.5	674.7	1395.8	pD2-value (vasodilatory potency) [1, 4]: approximately 6; Effect on RONS formation, result in words ([2]; in vitro challenge of isolated rat cardiac mitochondria): has also some increasing effect
CCc1ccc(CCOc2ccc(CC3SC(=O)N(COC(=O)NCCO[N+](=O)[O-])C3=O)cc2)nc1 (stereo not drawn) [compound 1]	98.13 ± 5.98	87.22 ± 3.34	79.07 ± 3.82	70.11 ± 3.49	57.49 ± 3.15	43.34 ± 2.88	27.72 ± 2.57	12.82 ± 1.68	2.65 ± 1.49	0	even more active than isosorbide dinitrate	~1	697.3	609.8	889.2	–	–	–	Effect on RONS formation, result in words [2]: does not have a pronounced effect on RONS formation
